Experimental findings from ChEMBL document CHEMBL5360607, “The Hitchhiker's Guide to Deep Learning Driven Generative Chemistry” (ACS Med Chem Lett, 2023) are described below.

Experiment [1] deals with Fibroblast growth factor receptor 1 (Homo sapiens, UniProt P11362). Put plainly: Inhibition of FGFR1 (unknown origin).
In experiment [2] the target is Fibroblast growth factor receptor 4 (Homo sapiens, UniProt P22455). The experiment can be described thus: Inhibition of FGFR4 (unknown origin).
For experiment [3], the target named is Fibroblast growth factor receptor 2 (Homo sapiens, UniProt P21802). Put plainly: Inhibition of FGFR2 (unknown origin).
For experiment [4], the target named is Fibroblast growth factor receptor 3 (Homo sapiens, UniProt P22607). Put plainly: Inhibition of FGFR3 (unknown origin).
Sequence of Fibroblast growth factor receptor 3 (P22607 whole entry): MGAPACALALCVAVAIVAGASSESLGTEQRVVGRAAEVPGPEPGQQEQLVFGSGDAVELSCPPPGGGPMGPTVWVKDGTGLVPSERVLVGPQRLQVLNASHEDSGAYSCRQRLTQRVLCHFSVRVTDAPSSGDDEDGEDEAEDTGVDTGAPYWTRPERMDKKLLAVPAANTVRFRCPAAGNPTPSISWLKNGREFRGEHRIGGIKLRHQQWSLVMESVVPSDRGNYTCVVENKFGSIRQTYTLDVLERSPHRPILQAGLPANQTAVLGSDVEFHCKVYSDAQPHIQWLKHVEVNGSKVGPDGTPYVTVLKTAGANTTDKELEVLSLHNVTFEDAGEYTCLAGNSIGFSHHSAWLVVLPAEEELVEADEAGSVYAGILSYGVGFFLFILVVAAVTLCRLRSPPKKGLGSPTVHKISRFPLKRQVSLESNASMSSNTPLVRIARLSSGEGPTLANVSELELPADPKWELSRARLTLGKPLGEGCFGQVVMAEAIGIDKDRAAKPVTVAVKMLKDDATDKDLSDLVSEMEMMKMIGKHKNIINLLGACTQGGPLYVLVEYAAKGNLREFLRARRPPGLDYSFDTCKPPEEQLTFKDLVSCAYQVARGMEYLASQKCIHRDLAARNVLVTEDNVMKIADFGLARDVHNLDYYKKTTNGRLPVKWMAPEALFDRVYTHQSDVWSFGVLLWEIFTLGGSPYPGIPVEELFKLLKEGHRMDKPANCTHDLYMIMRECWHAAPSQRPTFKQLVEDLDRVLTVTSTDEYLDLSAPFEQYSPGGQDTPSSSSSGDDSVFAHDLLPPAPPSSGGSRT
The target in experiment [5] is Tyrosine-protein kinase JAK2 (Homo sapiens) (UniProt O60674). The experiment can be described thus: Inhibition of JAK2 (unknown origin) at 1 uM relative to control.
Sequence of Tyrosine-protein kinase JAK2 (Homo sapiens) (O60674 whole entry): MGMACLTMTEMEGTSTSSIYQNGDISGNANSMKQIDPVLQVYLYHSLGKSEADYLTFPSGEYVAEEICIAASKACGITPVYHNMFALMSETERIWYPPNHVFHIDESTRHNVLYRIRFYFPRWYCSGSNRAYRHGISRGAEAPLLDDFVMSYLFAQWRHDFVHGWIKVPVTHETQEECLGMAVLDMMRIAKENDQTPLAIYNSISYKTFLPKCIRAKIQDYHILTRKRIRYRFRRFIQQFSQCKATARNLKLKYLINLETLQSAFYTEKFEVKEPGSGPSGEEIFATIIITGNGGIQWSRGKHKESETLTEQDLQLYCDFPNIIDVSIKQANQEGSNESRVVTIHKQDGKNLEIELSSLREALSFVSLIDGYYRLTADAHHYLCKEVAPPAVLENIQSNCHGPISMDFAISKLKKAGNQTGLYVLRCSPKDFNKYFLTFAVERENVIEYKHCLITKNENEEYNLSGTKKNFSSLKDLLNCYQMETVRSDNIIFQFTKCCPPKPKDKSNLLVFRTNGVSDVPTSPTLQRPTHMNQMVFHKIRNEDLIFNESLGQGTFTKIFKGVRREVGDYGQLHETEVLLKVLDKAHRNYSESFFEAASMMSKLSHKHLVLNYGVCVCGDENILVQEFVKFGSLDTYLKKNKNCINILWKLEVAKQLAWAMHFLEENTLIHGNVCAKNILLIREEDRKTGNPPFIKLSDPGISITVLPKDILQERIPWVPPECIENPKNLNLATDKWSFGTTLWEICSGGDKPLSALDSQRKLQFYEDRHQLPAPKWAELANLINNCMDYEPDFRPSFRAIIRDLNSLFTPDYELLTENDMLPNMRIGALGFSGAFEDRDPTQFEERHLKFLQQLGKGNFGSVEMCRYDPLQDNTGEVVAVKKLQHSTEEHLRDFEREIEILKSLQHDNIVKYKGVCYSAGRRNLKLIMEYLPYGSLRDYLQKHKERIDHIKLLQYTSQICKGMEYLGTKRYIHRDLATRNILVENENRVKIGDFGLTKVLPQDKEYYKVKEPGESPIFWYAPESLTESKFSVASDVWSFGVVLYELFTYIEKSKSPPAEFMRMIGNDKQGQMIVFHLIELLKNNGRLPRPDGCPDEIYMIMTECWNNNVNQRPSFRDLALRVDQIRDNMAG
Experiment [6] addresses T1, Macrophage colony-stimulating factor 1 receptor (Homo sapiens, UniProt P07333). Put plainly: Inhibition of CSF1R (unknown origin).
A further experiment concerns the target Adenosine receptor A2a (Homo sapiens, UniProt P29274). The experiment can be described thus: Binding affinity to adenosine receptor A2a (unknown origin) assessed as inhibition constant.
The target in the next experiment is T2, Adenosine receptor A1 (Homo sapiens, UniProt P30542).
T2 sequence (P30542 whole entry): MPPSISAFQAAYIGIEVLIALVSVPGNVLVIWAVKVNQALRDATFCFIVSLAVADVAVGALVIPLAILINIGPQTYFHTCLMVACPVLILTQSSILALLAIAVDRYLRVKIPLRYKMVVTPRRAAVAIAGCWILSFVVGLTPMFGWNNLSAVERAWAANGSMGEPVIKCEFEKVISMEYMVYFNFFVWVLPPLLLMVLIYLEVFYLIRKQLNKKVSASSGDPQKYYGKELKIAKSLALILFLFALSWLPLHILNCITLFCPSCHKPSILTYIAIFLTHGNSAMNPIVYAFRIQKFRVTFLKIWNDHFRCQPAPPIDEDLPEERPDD
The experiment can be described thus: Binding affinity to adenosine receptor A1 (unknown origin) assessed as inhibition constant.

Experiment [7] deals with T3, Receptor-type tyrosine-protein kinase FLT3 (Homo sapiens, UniProt P36888).
T3 sequence (P36888 whole entry): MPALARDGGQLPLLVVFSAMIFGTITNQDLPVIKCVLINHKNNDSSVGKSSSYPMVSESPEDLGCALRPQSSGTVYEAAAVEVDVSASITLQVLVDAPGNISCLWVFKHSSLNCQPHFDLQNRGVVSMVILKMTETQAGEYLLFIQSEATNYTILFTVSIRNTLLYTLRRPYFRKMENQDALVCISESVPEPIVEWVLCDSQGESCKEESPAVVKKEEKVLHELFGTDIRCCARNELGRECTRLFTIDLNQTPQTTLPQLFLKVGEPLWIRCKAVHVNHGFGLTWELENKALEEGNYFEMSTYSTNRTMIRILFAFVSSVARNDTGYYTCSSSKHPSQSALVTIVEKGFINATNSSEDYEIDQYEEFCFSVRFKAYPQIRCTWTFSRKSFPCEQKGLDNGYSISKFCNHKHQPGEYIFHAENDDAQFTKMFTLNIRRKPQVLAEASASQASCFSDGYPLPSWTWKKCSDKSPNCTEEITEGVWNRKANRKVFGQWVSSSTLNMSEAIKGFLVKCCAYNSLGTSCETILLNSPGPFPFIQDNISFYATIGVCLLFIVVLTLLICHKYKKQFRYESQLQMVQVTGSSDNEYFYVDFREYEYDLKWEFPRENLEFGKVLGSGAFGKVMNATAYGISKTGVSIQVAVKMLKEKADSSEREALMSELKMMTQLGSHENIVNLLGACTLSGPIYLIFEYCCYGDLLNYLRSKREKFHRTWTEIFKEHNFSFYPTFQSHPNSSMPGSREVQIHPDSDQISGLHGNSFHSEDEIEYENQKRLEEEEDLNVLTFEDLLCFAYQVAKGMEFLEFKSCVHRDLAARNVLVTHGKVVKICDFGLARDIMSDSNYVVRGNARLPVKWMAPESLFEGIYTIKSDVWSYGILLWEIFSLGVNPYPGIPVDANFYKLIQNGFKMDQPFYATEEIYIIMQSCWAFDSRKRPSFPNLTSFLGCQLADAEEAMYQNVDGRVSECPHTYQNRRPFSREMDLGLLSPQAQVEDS
The experiment can be described thus: Inhibition of FLT3 (unknown origin).

Experiment [8] concerns the target T1, Macrophage colony-stimulating factor 1 receptor. Put plainly: Inhibition of FMS (unknown origin).
Experiment [9] deals with Serine/threonine-protein kinase B-raf (Homo sapiens, UniProt P15056). Put plainly: Inhibition of BRAF (unknown origin).
Sequence of Serine/threonine-protein kinase B-raf (P15056 whole entry): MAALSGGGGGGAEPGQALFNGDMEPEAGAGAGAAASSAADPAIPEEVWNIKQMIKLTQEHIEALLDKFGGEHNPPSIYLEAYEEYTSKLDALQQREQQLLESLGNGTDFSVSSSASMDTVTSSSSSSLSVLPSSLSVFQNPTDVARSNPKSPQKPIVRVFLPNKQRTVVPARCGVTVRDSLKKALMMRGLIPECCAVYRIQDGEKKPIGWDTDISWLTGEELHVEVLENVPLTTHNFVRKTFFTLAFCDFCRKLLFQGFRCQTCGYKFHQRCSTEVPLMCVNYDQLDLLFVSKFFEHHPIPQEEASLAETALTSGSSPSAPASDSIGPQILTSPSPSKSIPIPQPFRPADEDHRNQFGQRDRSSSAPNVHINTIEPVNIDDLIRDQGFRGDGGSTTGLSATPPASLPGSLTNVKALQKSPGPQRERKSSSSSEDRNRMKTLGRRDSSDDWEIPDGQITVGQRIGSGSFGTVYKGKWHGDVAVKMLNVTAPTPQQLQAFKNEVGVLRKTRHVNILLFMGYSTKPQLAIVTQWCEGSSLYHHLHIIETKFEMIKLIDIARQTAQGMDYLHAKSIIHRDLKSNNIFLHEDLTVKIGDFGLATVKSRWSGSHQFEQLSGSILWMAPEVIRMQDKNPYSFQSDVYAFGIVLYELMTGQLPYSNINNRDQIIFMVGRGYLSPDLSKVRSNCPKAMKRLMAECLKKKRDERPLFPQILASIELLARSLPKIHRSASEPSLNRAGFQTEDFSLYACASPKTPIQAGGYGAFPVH
For experiment [10], the target named is Tyrosine-protein kinase BTK (Homo sapiens, UniProt Q06187). The experiment can be described thus: Inhibition of BTK (unknown origin).
Sequence of Tyrosine-protein kinase BTK (Q06187 whole entry): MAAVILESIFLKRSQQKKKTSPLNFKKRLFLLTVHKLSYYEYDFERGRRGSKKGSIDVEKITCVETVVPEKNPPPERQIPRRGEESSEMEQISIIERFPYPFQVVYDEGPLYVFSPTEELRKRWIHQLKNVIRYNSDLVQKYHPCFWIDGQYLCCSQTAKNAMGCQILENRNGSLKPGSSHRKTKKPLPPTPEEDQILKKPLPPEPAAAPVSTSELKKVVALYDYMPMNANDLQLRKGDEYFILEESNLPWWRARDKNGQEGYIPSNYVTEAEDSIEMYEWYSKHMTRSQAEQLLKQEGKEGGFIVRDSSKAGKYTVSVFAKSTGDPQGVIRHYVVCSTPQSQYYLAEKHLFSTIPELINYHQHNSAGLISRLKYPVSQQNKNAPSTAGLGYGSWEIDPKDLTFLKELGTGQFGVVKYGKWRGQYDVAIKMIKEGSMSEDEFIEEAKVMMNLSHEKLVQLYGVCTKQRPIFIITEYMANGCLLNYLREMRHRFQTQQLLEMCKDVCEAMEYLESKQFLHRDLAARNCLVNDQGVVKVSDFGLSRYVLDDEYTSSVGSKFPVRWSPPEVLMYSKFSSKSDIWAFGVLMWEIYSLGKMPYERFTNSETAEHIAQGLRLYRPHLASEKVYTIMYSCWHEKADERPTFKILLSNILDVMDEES
Experiment [11] deals with Protein kinase C (PKC) (Homo sapiens) (UniProt O94806+P41743+P17252+P05129+Q05655+P05771+Q05513+Q02156+P24723+Q15139+Q04759). The experiment can be described thus: Inhibition of PKC (unknown origin) at 10 uM relative to control. In kind it is protein assay.
In experiment [12] the target is T4, High affinity nerve growth factor receptor (Homo sapiens, UniProt P04629). The experiment can be described thus: Inhibition of TRKA (unknown origin) at 10 uM relative to control.
Experiment [13] deals with Fibroblast growth factor receptor (Homo sapiens) (UniProt P22607+P11362+P22455+P21802). The experiment can be described thus: Inhibition of FGFR (unknown origin) at 10 uM relative to control. The format is protein assay.
For the next experiment, the species on record is Homo sapiens. Put plainly: Inhibition of FLT (unknown origin) at 10 uM relative to control.
For experiment [14], the target named is T4, High affinity nerve growth factor receptor. The experiment can be described thus: Inhibition of TRKA (unknown origin).
Experiment [15] deals with Receptor-type tyrosine-protein kinase FLT3 (Homo sapiens, UniProt P36888, D835Y). The experiment can be described thus: Inhibition of FLT3 D835Y (unknown origin).
Experiment [16] has as its target Maternal embryonic leucine zipper kinase (Homo sapiens) (UniProt Q14680). Put plainly: Inhibition of MELK (unknown origin) at 10 uM relative to control.

The structures appear in SMILES notation.

T1 sequence (P07333 whole entry): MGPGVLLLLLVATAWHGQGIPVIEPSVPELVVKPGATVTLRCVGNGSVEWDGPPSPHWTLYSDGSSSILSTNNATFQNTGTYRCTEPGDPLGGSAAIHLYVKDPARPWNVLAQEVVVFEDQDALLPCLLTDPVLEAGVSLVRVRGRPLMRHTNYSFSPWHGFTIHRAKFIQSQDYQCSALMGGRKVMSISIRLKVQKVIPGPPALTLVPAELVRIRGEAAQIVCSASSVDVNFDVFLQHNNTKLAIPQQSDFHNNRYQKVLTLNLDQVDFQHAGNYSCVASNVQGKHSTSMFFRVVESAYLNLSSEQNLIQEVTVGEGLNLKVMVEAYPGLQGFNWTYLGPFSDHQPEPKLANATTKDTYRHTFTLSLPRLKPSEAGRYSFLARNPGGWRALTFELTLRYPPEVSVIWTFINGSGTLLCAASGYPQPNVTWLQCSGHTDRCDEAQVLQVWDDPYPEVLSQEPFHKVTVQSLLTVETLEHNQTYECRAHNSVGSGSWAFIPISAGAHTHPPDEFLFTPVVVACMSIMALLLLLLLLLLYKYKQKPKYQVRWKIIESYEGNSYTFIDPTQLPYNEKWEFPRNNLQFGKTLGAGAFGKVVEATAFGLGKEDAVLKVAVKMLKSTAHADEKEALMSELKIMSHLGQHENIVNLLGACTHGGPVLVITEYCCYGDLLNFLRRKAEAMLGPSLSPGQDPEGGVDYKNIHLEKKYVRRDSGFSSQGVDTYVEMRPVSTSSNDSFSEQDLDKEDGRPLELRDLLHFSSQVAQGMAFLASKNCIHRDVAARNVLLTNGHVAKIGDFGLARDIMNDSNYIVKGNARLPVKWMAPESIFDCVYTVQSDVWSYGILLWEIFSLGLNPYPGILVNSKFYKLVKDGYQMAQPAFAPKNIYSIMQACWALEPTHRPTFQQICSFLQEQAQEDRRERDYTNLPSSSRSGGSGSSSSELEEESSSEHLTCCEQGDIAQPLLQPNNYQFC
Sequence of Adenosine receptor A2a (P29274 whole entry): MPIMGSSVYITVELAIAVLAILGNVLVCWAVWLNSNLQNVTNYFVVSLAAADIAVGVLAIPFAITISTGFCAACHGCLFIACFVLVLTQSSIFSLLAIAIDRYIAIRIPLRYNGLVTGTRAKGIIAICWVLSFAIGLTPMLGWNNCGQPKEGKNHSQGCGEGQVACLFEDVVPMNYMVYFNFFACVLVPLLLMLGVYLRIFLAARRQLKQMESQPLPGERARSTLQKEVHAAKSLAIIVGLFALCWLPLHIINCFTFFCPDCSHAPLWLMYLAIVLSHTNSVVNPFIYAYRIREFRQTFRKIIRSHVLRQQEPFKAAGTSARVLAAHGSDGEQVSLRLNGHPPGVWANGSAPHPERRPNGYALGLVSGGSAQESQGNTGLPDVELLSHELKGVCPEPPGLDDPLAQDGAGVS

For the molecule `C=CC(=O)N1CC[C@H](n2cc(-c3cc4ccccc4o3)c3c(N)n[nH]c(=O)c32)C1`, the IC50 in experiment [1], in experiment [2], in experiment [3] and in experiment [4] was less than 0.01 µM each time.

Consider `CNC(=O)c1ccccc1Nc1c(C(F)(F)F)cnc2[nH]c(-c3ccc(F)cc3)cc12`, for which the inhibition in experiment [5] was found to be 88%.

`O=C(NCc1ccc(C(F)(F)F)nc1)Nc1ccc(Oc2ncnc3[nH]ccc23)cc1` gave a 50% inhibitory concentration (IC50) in [6] of 0.02 µM.

On to `O=c1[nH]nc(NC2CCCC2)c2nnn(Cc3cccs3)c12`, for which the Ki worked out at 0.895 µM at Adenosine receptor A2a and 0.0467 µM at Adenosine receptor A1.

With `COc1ncc(CNc2ccc(Cc3c[nH]c4ncc(C(F)(F)F)cc34)c(F)n2)cc1F`, the IC50 in experiment [7] and in experiment [8] was less than 0.1 µM in each case.

Turning to `COc1cncc(-c2cn(-c3c(F)ccc(NS(=O)(=O)C(C)C)c3F)nn2)c1`, the EC50 in experiment [9] came to 0.493 µM.

Turning to `CN(c1ncccc1CNc1c(C#N)cnc2[nH]ccc12)S(C)(=O)=O`, in experiment [5], the inhibition came out at 68%.

The molecule `COc1ccc(F)cc1C(=O)NCc1ccc(-c2nn(C3CCCC3)c3c(=O)[nH]nc(N)c23)cc1` registered an IC50 in experiment [10] of 0.0005 µM. This lies in the sub-nanomolar range.

As to `CN(C)S(=O)(=O)Nc1cccc(-c2cnn(-c3ccc(C(F)(F)F)cc3)c2)c1`, the inhibition worked out at 35% in [11]; 55% in [12]; 35% in experiment [13]; 45% in the experiment filed under Homo sapiens; 35% in experiment [16]. For the same molecule, the IC50 is 13.6 µM in experiment [7], 5.8 µM in experiment [14] and 1.83 µM in [15].

For orientation: IC50 means the point on the concentration scale where inhibition reaches its midpoint. The inhibition is how much of the control response was suppressed. The term Ki denotes the dissociation constant of the complex between target and ligand, obtained from inhibition or displacement. As a reminder, the EC50 is the concentration that produces a half-maximal response. Lower therefore signals a more potent agent.
